Laboratory results taken from the NIST ThermoML archive (doi:10.1021/acs.jced.6b00691).

Experiment: xn = mol fraction of the nth substance listed
Conditions: Liquid, Taylor dispersion method, x2 = 0

CC(C)CCCC(C)CCCC(C)CCCCC(C)CCCC(C)CCCC(C)C (centres undefined) [2,6,10,15,19,23-hexamethyltetracosane] + O=C=O
Conditions | binary diffusion coefficient [m2/s]
298 K, 1100 kPa | 9.6e-10
298 K, 10000 kPa | 8.6e-10
298 K, 32000 kPa | 6.9e-10
298 K, 52000 kPa | 5.6e-10
298 K, 66000 kPa | 4.9e-10
323 K, 1100 kPa | 1.78e-09
323 K, 10000 kPa | 1.61e-09
323 K, 30000 kPa | 1.35e-09
323 K, 52000 kPa | 1.14e-09
323 K, 64000 kPa | 1.02e-09
348 K, 1000 kPa | 2.83e-09
348 K, 11000 kPa | 2.57e-09
348 K, 31000 kPa | 2.18e-09
348 K, 50000 kPa | 1.94e-09
348 K, 67000 kPa | 1.73e-09
373 K, 1000 kPa | 4.06e-09
373 K, 10000 kPa | 3.72e-09
373 K, 30000 kPa | 3.21e-09
373 K, 47000 kPa | 2.88e-09
373 K, 66000 kPa | 2.58e-09
398 K, 1000 kPa | 5.45e-09
398 K, 11000 kPa | 4.98e-09
398 K, 31000 kPa | 4.38e-09
398 K, 50000 kPa | 3.89e-09
398 K, 66000 kPa | 3.55e-09
423 K, 1000 kPa | 7.01e-09
423 K, 11000 kPa | 6.36e-09
423 K, 30000 kPa | 5.69e-09
423 K, 50000 kPa | 5e-09
423 K, 67000 kPa | 4.6e-09

CCCCCCCCCC [decane] + O=C=O
Conditions | binary diffusion coefficient [m2/s]
298 K, 1100 kPa | 4.69e-09
298 K, 22000 kPa | 4e-09
298 K, 45000 kPa | 3.22e-09
298 K, 68000 kPa | 2.84e-09
323 K, 1100 kPa | 6.44e-09
323 K, 22000 kPa | 5.41e-09
323 K, 46000 kPa | 4.39e-09
323 K, 68000 kPa | 3.91e-09
373 K, 1100 kPa | 1.04e-08
373 K, 22000 kPa | 8.76e-09
373 K, 44000 kPa | 7.08e-09
373 K, 67000 kPa | 6.34e-09
423 K, 1100 kPa | 1.51e-08
423 K, 21000 kPa | 1.27e-08
423 K, 43000 kPa | 1.02e-08
423 K, 66000 kPa | 9.17e-09

CCCCCCCCCCCC [dodecane] + O=C=O
Conditions | binary diffusion coefficient [m2/s]
298 K, 1300 kPa | 3.72e-09
298 K, 24000 kPa | 3.1e-09
298 K, 47000 kPa | 2.65e-09
323 K, 1200 kPa | 5.53e-09
323 K, 25000 kPa | 4.23e-09
323 K, 46000 kPa | 3.65e-09
323 K, 63000 kPa | 3.44e-09
373 K, 1200 kPa | 9.3e-09
373 K, 24000 kPa | 7.57e-09
373 K, 46000 kPa | 6.54e-09
373 K, 61000 kPa | 5.98e-09
423 K, 1200 kPa | 1.35e-08
423 K, 23000 kPa | 1.14e-08
423 K, 46000 kPa | 9.75e-09
423 K, 65000 kPa | 8.65e-09

CCCCCCC [heptane] + O=C=O
binary diffusion coefficient [m2/s]
Conditions | 1000 kPa | 10000 kPa | 30000 kPa | 31000 kPa | 48000 kPa | 49000 kPa | 50000 kPa | 51000 kPa | 67000 kPa | 68000 kPa
298 K | 7.28e-09 | 6.82e-09 | – | 5.9e-09 | – | – | 5.37e-09 | – | – | 5.06e-09
323 K | 9.25e-09 | 8.72e-09 | 7.64e-09 | – | – | – | – | 6.95e-09 | – | 6.37e-09
348 K | 1.14e-08 | 1.02e-08 | 9.4e-09 | – | 8.1e-09 | – | – | – | 7.89e-09 | –
373 K | 1.37e-08 | 1.25e-08 | 1.12e-08 | – | – | 9.95e-09 | – | – | – | 9.32e-09
398 K | 1.61e-08 | 1.49e-08 | 1.31e-08 | – | – | – | 1.17e-08 | – | – | 1.09e-08
423 K | 1.8e-08 | 1.68e-08 | 1.5e-08 | – | – | – | 1.36e-08 | – | – | 1.23e-08

CCCCCCCCCCCCCCCC [hexadecane] + O=C=O
Conditions | binary diffusion coefficient [m2/s]
298 K, 1000 kPa | 2.49e-09
298 K, 10000 kPa | 2.31e-09
298 K, 30000 kPa | 2.08e-09
323 K, 1100 kPa | 3.75e-09
323 K, 10000 kPa | 3.41e-09
323 K, 30000 kPa | 3.17e-09
323 K, 51000 kPa | 2.61e-09
323 K, 69000 kPa | 2.51e-09
348 K, 1000 kPa | 5.13e-09
348 K, 10000 kPa | 4.64e-09
348 K, 30000 kPa | 4.37e-09
348 K, 50000 kPa | 3.77e-09
348 K, 67000 kPa | 3.49e-09
373 K, 1100 kPa | 6.72e-09
373 K, 10000 kPa | 6.17e-09
373 K, 30000 kPa | 5.88e-09
373 K, 52000 kPa | 4.84e-09
373 K, 67000 kPa | 4.67e-09
398 K, 1100 kPa | 8.53e-09
398 K, 29000 kPa | 7.42e-09
398 K, 53000 kPa | 6.27e-09
398 K, 69000 kPa | 5.86e-09
423 K, 1100 kPa | 1.04e-08
423 K, 10000 kPa | 9.72e-09
423 K, 29000 kPa | 9.16e-09
423 K, 45000 kPa | 7.96e-09
423 K, 69000 kPa | 7.07e-09

CCCCCC [hexane] + O=C=O
Conditions | binary diffusion coefficient [m2/s]
298 K, 1300 kPa | 8.32e-09
298 K, 23000 kPa | 7.27e-09
298 K, 49000 kPa | 6.06e-09
298 K, 65000 kPa | 5.13e-09
323 K, 1200 kPa | 1.05e-08
323 K, 22000 kPa | 9.27e-09
323 K, 50000 kPa | 7.61e-09
323 K, 66000 kPa | 7.15e-09
373 K, 1200 kPa | 1.58e-08
373 K, 22000 kPa | 1.34e-08
373 K, 49000 kPa | 1.1e-08
373 K, 64000 kPa | 1.03e-08
423 K, 1200 kPa | 1.87e-08
423 K, 22000 kPa | 1.79e-08
423 K, 48000 kPa | 1.49e-08
423 K, 64000 kPa | 1.37e-08

CCCCCCCC [octane] + O=C=O
Conditions | binary diffusion coefficient [m2/s]
298 K, 1000 kPa | 6.32e-09
298 K, 11000 kPa | 5.66e-09
298 K, 33000 kPa | 4.72e-09
298 K, 50000 kPa | 4.28e-09
298 K, 66000 kPa | 3.83e-09
323 K, 900 kPa | 8.19e-09
323 K, 11000 kPa | 7.36e-09
323 K, 32000 kPa | 6.1e-09
323 K, 51000 kPa | 5.62e-09
323 K, 68000 kPa | 5.1e-09
348 K, 900 kPa | 1.04e-08
348 K, 11000 kPa | 8.98e-09
348 K, 33000 kPa | 7.7e-09
348 K, 50000 kPa | 7.07e-09
348 K, 69000 kPa | 6.54e-09
373 K, 1100 kPa | 1.26e-08
373 K, 11000 kPa | 1.11e-08
373 K, 31000 kPa | 9.46e-09
373 K, 50000 kPa | 8.87e-09
373 K, 67000 kPa | 8.01e-09
398 K, 1100 kPa | 1.48e-08
398 K, 11000 kPa | 1.34e-08
398 K, 31000 kPa | 1.14e-08
398 K, 51000 kPa | 1.06e-08
398 K, 69000 kPa | 9.67e-09
423 K, 1100 kPa | 1.67e-08
423 K, 11000 kPa | 1.62e-08
423 K, 29000 kPa | 1.36e-08
423 K, 51000 kPa | 1.27e-08
423 K, 65000 kPa | 1.14e-08

Cc1ccccc1 [toluene] + O=C=O
Conditions | binary diffusion coefficient [m2/s]
298 K, 1000 kPa | 5.53e-09
298 K, 11000 kPa | 5.09e-09
298 K, 30000 kPa | 4.77e-09
298 K, 48000 kPa | 4.28e-09
298 K, 68000 kPa | 3.92e-09
323 K, 1000 kPa | 7.28e-09
323 K, 10000 kPa | 6.78e-09
323 K, 30000 kPa | 6.32e-09
323 K, 49000 kPa | 5.7e-09
323 K, 66000 kPa | 5.17e-09
348 K, 1000 kPa | 9.26e-09
348 K, 11000 kPa | 8.62e-09
348 K, 30000 kPa | 8.02e-09
348 K, 48000 kPa | 7.31e-09
348 K, 67000 kPa | 6.54e-09
373 K, 1000 kPa | 1.14e-08
373 K, 10000 kPa | 1.04e-08
373 K, 30000 kPa | 9.81e-09
373 K, 51000 kPa | 8.94e-09
373 K, 67000 kPa | 8e-09
398 K, 1000 kPa | 1.38e-08
398 K, 10000 kPa | 1.24e-08
398 K, 30000 kPa | 1.17e-08
398 K, 48000 kPa | 1.05e-08
398 K, 68000 kPa | 9.6e-09
423 K, 1100 kPa | 1.6e-08
423 K, 10000 kPa | 1.5e-08
423 K, 30000 kPa | 1.4e-08
423 K, 50000 kPa | 1.23e-08
423 K, 67000 kPa | 1.14e-08
